Data: US12036212B2, “Enhancement of tumor response to chemotherapy by activation of the asmase/ceramide pathway through timed administration of a short-acting anti-angiogenic agent” (Memorial Sloan-Kettering Cancer Center, priority 2014, dated 2024)

Test system: ASMase
Assay: ASMase activation in HCAEC
Assay type: cell-based, human
Conditions: cisplatin 0.1-50 μM
Protocol: HCAEC were obtained from Clonetics™ Coronary Artery Endothelial Cell Systems (Cambrex Bio Science Inc.). For HCAEC culturing and sub-culturing Clonetics cell system components were used: EBM®-2, Endothelial Cell Basal Medium-2 with addition of Clonetics EGM-2-MV SingleQuots containing growth supplements (Cambrex) (Biomedical Technologies, Inc.). For sub-culturing, monolayers were dissociated with Clonetics® Trypsin/EDTA solution for 2-3 min at 22° C. at a split ratio of 1:4 to expand the cell population for experiments. HCAEC cultures were maintained at 37° C. in 5% CO2 humidified incubators.
ASMase activity was quantified by radioenzymatic assay using [^14C-methylcholine]sphingomyelin (Amersham) as substrate as described (Schissel et al. J Biol Chem, 271, 18431-18436, 1996). Cell lysates were incubated with [^14C-methylcholine]-sphingomyelin substrate (0.026 mCi/9.5 nmol) in 250 mM sodium acetate, pH 5.0 supplemented with 0.1% Triton X-100 and 1 mM EDTA or 0.1 mM ZnCl. Reactions were terminated after 1 h with CHCl3:MeOH:1N HCl (100:100:1, v/v/v), and [^14C-methylcholine]phosphocholine product in the aqueous layer of the Folch extract was quantified using a Beckman Packard 2200 CA Tricarb scintillation counter. For detection of ASMase activity in patients, 10 μl of serum was used. […]

## N.N.[Cl][Pt][Cl] [cisplatin]
  ASMase activation: failed to activate ASMase
